# Laboratory results published in patent US20120088759A1, “THIAZOLIDIN-4-ONE AND [1,3]-THIAZINAN-4-ONE COMPOUNDS AS OREXIN RECEPTOR ANTAGONISTS” (priority 2009, published 2012).
# Assays:
# human orexin-1 receptor = biological target: T1, human orexin-1 receptor (Homo sapiens, UniProt O43613); experiment: FLIPR intracellular calcium assay, orexin receptor antagonistic activity (OX1); format: cell-based; conditions: CHO cells expressing human orexin-1 receptor; 3 nM orexin-A; normalized to on-plate reference; *n = geometric mean from n values
# T1 construct: expressed in transfected cells; host or cells: CHO (Chinese hamster ovary) cells, kept under G418
# T1 sequence (O43613 1-425): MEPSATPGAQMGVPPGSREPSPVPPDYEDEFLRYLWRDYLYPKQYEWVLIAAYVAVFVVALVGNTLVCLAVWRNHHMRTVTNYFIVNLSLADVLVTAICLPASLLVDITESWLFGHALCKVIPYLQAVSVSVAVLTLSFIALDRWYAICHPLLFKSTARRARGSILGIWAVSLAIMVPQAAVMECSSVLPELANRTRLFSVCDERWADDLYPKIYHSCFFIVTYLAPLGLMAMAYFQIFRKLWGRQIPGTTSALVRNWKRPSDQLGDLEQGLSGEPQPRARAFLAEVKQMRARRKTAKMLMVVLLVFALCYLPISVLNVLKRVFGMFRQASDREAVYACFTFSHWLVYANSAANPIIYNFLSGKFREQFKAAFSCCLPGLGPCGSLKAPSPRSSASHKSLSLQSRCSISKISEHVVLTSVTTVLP
# Protocol: (§1) The orexin receptor antagonistic activity of the compounds of formula (I) is determined in accordance with the following experimental method.
# (§2) Chinese hamster ovary (CHO) cells expressing the human orexin-1 receptor and the human orexin-2 receptor, respectively, are grown in culture medium (Ham F-12 with L-Glutamine) containing 300 μg/ml G418, 100 U/ml penicillin, 100 μg/ml streptomycin and 10% heat inactivated fetal calf serum (FCS). The cells are seeded at 20′000 cells/well into 384-well black clear bottom sterile plates (Greiner). The seeded plates are incubated overnight at 37° C. in 5% CO2.
# (§3) Human orexin-A as an agonist is prepared as 1 mM stock solution in MeOH:water (1:1), diluted in HBSS containing 0.1% bovine serum albumin (BSA), NaHCO3: 0.375 g/l and 20 mM HEPES for use in the assay at a final concentration of 3 nM.
# (§4) Antagonists are prepared as 10 mM stock solution in DMSO, then diluted in 384-well plates using DMSO followed by a transfer of the dilutions into in HBSS containing 0.1% bovine serum albumin (BSA), NaHCO3: 0.375 g/l and 20 mM HEPES. On the day of the assay, 50 μl of staining buffer (HBSS containing 1% FCS, 20 mM HEPES, NaHCO3: 0.375 g/l, 5 mM probenecid (Sigma) and 3 μM of the fluorescent calcium indicator fluo-4 AM (1 mM stock solution in DMSO, containing 10% pluronic) is added to each well. The 384-well cell-plates are incubated for 50 min at 37° C. in 5% CO2 followed by equilibration at rt for 30-120 min before measurement.
# (§5) Within the Fluorescent Imaging Plate Reader (FLIPR Tetra, Molecular Devices), antagonists are added to the plate in a volume of 10 μl/well, incubated for 10 min and finally 10 μl/well of agonist is added. Fluorescence is measured for each well at 1 second intervals, and the height of each fluorescence peak is compared to the height of the fluorescence peak induced by 3 nM orexin-A with vehicle in place of antagonist. For each antagonist, the IC50 value (the concentration of compound needed to inhibit 50% of the agonistic response) is determined and normalized using the obtained IC50 value of a on-plate reference compound. Optimized conditions were achieved by adjustment of pipetting speed and cell splitting regime. The calculated IC50 values of the compounds may fluctuate depending on the daily cellular assay performance. Fluctuations of this kind are known to those skilled in the art.
# human orexin-2 receptor = biological target: T2, human orexin-2 receptor (Homo sapiens, UniProt O43614); experiment: FLIPR intracellular calcium assay, orexin receptor antagonistic activity (OX2); format: cell-based; conditions: CHO cells expressing human orexin-2 receptor; 3 nM orexin-A; normalized to on-plate reference; *n = geometric mean from n values
# T2 construct: expressed in transfected cells; host or cells: CHO (Chinese hamster ovary) cells, kept under G418
# T2 sequence (O43614 1-444): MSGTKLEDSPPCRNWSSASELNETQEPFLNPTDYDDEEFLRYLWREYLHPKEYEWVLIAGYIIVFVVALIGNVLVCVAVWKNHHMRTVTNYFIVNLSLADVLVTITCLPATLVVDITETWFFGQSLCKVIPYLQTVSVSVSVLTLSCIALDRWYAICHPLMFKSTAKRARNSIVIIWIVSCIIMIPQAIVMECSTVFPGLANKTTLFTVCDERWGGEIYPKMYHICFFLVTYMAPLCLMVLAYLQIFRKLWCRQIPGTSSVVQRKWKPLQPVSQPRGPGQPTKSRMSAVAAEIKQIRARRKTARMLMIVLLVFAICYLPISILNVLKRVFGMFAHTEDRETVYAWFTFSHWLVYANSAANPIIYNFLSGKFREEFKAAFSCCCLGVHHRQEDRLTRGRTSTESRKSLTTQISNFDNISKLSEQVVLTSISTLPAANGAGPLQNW
# Protocol: as §1, §2, §3, §4, §5
Compound,IC50 (human orexin-1 receptor) [nM],IC50 (human orexin-2 receptor) [nM]
2-[2-(2-Hydroxy-ethoxy)-6-methoxy-phenyl]-3-(4-isopropoxy-benzyl)-thiazolidin-4-on [Example 269],2060,25
2-[2-(2-Hydroxy-ethoxy)-6-methoxy-phenyl]-3-(4-trifluoromethoxy-benzyl)-thiazolidin-4-one [Example 268],1840,45
"COc1ccc(CN2C(=O)CSC2c2c(OC)cccc2OC)cc1 (centres unmarked) [Example 1, 2-(2,6-Dimethoxy-phenyl)-3-(4-methoxy-benzyl)-thiazolidin-4-one]",309,104
"COc1cccc(OC)c1C1SCC(=O)N1Cc1ccc(OC(F)(F)F)cc1 (centres unmarked) [Example 2, 2-(2,6-Dimethoxy-phenyl)-3-(4-trifluoromethoxy-benzyl)-thiazolidin-4-one]",144,15
"COc1cccc(OC)c1C1SCC(=O)N1Cc1ccc(OC(C)(C)C)cc1 (centres unmarked) [Example 3, 3-(4-tert-Butoxy-benzyl)-2-(2,6-dimethoxy-phenyl)-thiazolidin-4-one]",1420,120
"COc1cccc(OC)c1C1SCC(=O)N1Cc1ccc(OC(F)F)cc1 (centres unmarked) [Example 4, 3-(4-Difluoromethoxy-benzyl)-2-(2,6-dimethoxy-phenyl)-thiazolidin-4-one]",377,27
"COc1cccc(OC)c1C1SCC(=O)N1Cc1ccc(OC(C)C)cc1 (centres unmarked) [Example 5, 2-(2,6-Dimethoxy-phenyl)-3-(4-isopropoxy-benzyl)-thiazolidin-4-one]",169,16
"CCOc1ccc(CN2C(=O)CSC2c2c(OC)cccc2OC)cc1 (centres unmarked) [Example 6, 2-(2,6-Dimethoxy-phenyl)-3-(4-ethoxy-benzyl)-thiazolidin-4-one]",140,24
"COc1cccc(OC)c1C1SCC(=O)N1Cc1ccc(Oc2ccccc2)cc1 (centres unmarked) [Example 7, 2-(2,6-Dimethoxy-phenyl)-3-(4-phenoxy-benzyl)-thiazolidin-4-one]",244,13
"COc1cccc(OC)c1C1SCC(=O)N1Cc1ccc2ccccc2c1 (centres unmarked) [Example 8, 2-(2,6-Dimethoxy-phenyl)-3-naphthalen-2-ylmethyl-thiazolidin-4-one]",83,23
"CCOc1ccc(CN2C(=O)CSC2c2c(OC)ccc3c2OCCO3)cc1 (centres unmarked) [Example 9, 3-(4-Ethoxy-benzyl)-2-(6-methoxy-2,3-dihydro-benzo[1,4]dioxin-5-yl)-thiazolidin-4-one]",326,39
"COc1ccc2c(c1C1SCC(=O)N1Cc1ccc(OC(F)(F)F)cc1)OCCO2 (centres unmarked) [Example 10, 2-(6-Methoxy-2,3-dihydro-benzo[1,4]dioxin-5-yl)-3-(4-trifluoromethoxy-benzyl)-thiazolidin-4-one]",144,16
"CCOc1ccc(CN2C(=O)CSC2c2c(OC)ccc3c2OCO3)cc1 (centres unmarked) [Example 11, 3-(4-Ethoxy-benzyl)-2-(5-methoxy-benzo[1,3]dioxol-4-yl)-thiazolidin-4-one]",885,46
"COc1ccc2c(c1C1SCC(=O)N1Cc1ccc(OC(F)(F)F)cc1)OCO2 (centres unmarked) [Example 12, 2-(5-Methoxy-benzo[1,3]dioxol-4-yl)-3-(4-trifluoromethoxy-benzyl)-thiazolidin-4-one]",310,11
"CCOc1ccc(CN2C(=O)C(C)SC2c2c(OC)cccc2OC)cc1 (centres unmarked) [Example 13, 2-(2,6-Dimethoxy-phenyl)-3-(4-ethoxy-benzyl)-5-methyl-thiazolidin-4-one]",244,43
"COc1cccc(OC)c1C1SC(C)C(=O)N1Cc1ccc2ccccc2c1 (centres unmarked) [Example 14, 2-(2,6-Dimethoxy-phenyl)-5-methyl-3-naphthalen-2-ylmethyl-thiazolidin-4-one]",31,44
"CCOc1ccc(CN2C(=O)CSC2c2c(OC)cccc2OCC)cc1 (centres unmarked) [Example 15, 3-(4-Ethoxy-benzyl)-2-(2-ethoxy-6-methoxy-phenyl)-thiazolidin-4-one]",853,48

# Now from value to compound:
IC50 (human orexin-1 receptor) [nM],IC50 (human orexin-2 receptor) [nM],Compound
454,24,"CCOc1cccc(OC)c1C1SCC(=O)N1Cc1ccc(OC(F)(F)F)cc1 (centres unmarked) [Example 16, 2-(2-Ethoxy-6-methoxy-phenyl)-3-(4-trifluoromethoxy-benzyl)-thiazolidin-4-one]"
363,15,"COc1cccc(OC)c1C1SC(C)C(=O)N1Cc1ccc(OC(F)(F)F)cc1 (centres unmarked) [Example 17, 2-(2,6-Dimethoxy-phenyl)-5-methyl-3-(4-trifluoromethoxy-benzyl)-thiazolidin-4-one]"
323,10,"COc1cccc(OC)c1C1SCC(=O)N1Cc1ccc(OCC(F)(F)F)cc1 (centres unmarked) [Example 18, 2-(2,6-Dimethoxy-phenyl)-3-[4-(2,2,2-trifluoro-ethoxy)-benzyl]-thiazolidin-4-one]"
8120,153,"CCOc1ccc(CN2C(=O)CSC2c2c(OC)ccc3c(C)noc23)cc1 (centres unmarked) [Example 19, 3-(4-Ethoxy-benzyl)-2-(6-methoxy-3-methyl-benzo[d]isoxazol-7-yl)-thiazolidin-4-one]"
1560,342,"CCOc1ccc(CN2C(=O)CSC2c2c(OC)ccc3nc(C)oc23)cc1 (centres unmarked) [Example 20, 3-(4-Ethoxy-benzyl)-2-(6-methoxy-2-methyl-benzooxazol-7-yl)-thiazolidin-4-one]"
1450,60,"CCOc1ccc(CN2C(=O)CSC2c2c(OC)ccc3cccnc23)cc1 (centres unmarked) [Example 21, 3-(4-Ethoxy-benzyl)-2-(7-methoxy-quinolin-8-yl)-thiazolidin-4-one]"
2360,19,"COc1ccc2c(C)noc2c1C1SCC(=O)N1Cc1ccc(OC(F)(F)F)cc1 (centres unmarked) [Example 22, 2-(6-Methoxy-3-methyl-benzo[d]isoxazol-7-yl)-3-(4-trifluoromethoxy-benzyl)-thiazolidin-4-one]"
204,28,"COc1ccc2nc(C)oc2c1C1SCC(=O)N1Cc1ccc(OC(F)(F)F)cc1 (centres unmarked) [Example 23, 2-(6-Methoxy-2-methyl-benzooxazol-7-yl)-3-(4-trifluoromethoxy-benzyl)-thiazolidin-4-one]"
278,14,"COc1ccc2cccnc2c1C1SCC(=O)N1Cc1ccc(OC(F)(F)F)cc1 (centres unmarked) [Example 24, 2-(7-Methoxy-quinolin-8-yl)-3-(4-trifluoromethoxy-benzyl)-thiazolidin-4-one]"
561,16,"COc1ccnc(OC)c1C1SCC(=O)N1Cc1ccc(OC(F)(F)F)cc1 (centres unmarked) [Example 25, 2-(2,4-Dimethoxy-pyridin-3-yl)-3-(4-trifluoromethoxy-benzyl)-thiazolidin-4-one]"
4300,126,"CCOc1ccc(CN2C(=O)CSC2c2c(OC)ccnc2OC)cc1 (centres unmarked) [Example 26, 2-(2,4-Dimethoxy-pyridin-3-yl)-3-(4-ethoxy-benzyl)-thiazolidin-4-one]"
